{"source": "patent USRE39497E1", "about": "“Storage of materials” (Nektar Therapeutics, priority 1989, dated 2007)", "key": {"[1]": {"conditions": "L. Slade and H. Levine, Pure Appl. Chem. 60 1841 (1988); cited from earlier work"}, "[2]": {"experiment": "Glass transition temperature Tg (differential scanning calorimeter)", "assay_type": "physicochemical", "conditions": "determined by the applicant", "from_the_text": "Tg values can be determined with a differential scanning calorimeter and can be detected as a point at which a plot of heat input against temperature passes through an inflection point—giving a maximum of the first temperature derivative."}}}
{"compound": "OC[C@H]1O[C@H](O[C@H]2[C@H](O)[C@@H](O)C(O)O[C@@H]2CO)[C@H](O)[C@@H](O)[C@@H]1O", "note": "(mixture of isomers) [maltose]", "values": [{"measurement": "Tg", "setting": "[1]", "value": 43, "unit": "°C"}]}
{"compound": "OC[C@H]1O[C@@](CO)(O[C@H]2O[C@H](CO)[C@@H](O)[C@H](O)[C@H]2O)[C@@H](O)[C@@H]1O", "note": "[sucrose]", "values": [{"measurement": "Tg value", "setting": "[2]", "value": 55, "unit": "°C"}]}
{"compound": "maltotriose", "values": [{"measurement": "Tg", "setting": "[1]", "value": 76, "unit": "°C"}]}
